Measured values reported in patent US8460644B2, “Synergistic mixed poloxamer systems for the solubilisation of drugs” (IS Pharmaceuticals Limited, priority 2001, dated 2013).
Read-outs that look alike come from different tables or passages of the source.

Tests used:
[1] = Maximum additive concentration (MAC) and degree of synergistic solubilisation in aqueous P407+P188 mixtures; assay type: physicochemical
Experimental: The maximum additive concentration (MAC) and degree of synergistic solubilisation was determined for a selection of water insoluble and sparingly soluble actives in aqueous P407+P188 mixtures.
For each active, the MAC was determined in the following aqueous poloxamer solutions:
As an aid to evaluating the level of synergistic solubilisation present within the system, the experimental data given in FIGS. 1-3 also includes the calculated MAC's of the systems that would be expected if the poloxamers comprising the mixture were solubilising independently and the overall MAC were simply the sum of the individual MAC's for the two components or admixture.

[2] = cited from earlier work
[3] = 3% w/v P407 + 7% w/v P188 in water
[4] = 7% w/v P407 + 3% w/v P188 in water

SMILES	synergistic ratio, MACexperimental/MACadmixture [1, 3]	synergistic ratio, MACexperimental/MACadmixture [1, 4]	incidence of pain on injection ([2]; formulated in a mixture of propylene glycol and water) [%]	incidence of pain on injection ([2]; formulated in an emulsion form) [%]
CCCCCCC(=O)OCCN1CCN(CCCN2c3ccccc3Sc3ccc(C(F)(F)F)cc32)CC1 [Fluphenazine enanthate, 2-{4-[3-(2-trifluoromethylphenothiazin-10-yl)propyl]piperazin-1-yl}ethyl heptanoate]	2.5	1.8	–	–
Cc1ccc(C(C)C)cc1O [Carvacrol, 2-methyl-5-(1-methylethyl)phenol]	2.1	1.8	–	–
CCCCCCCCCC(=O)OCCN1CCN(CCCN2c3ccccc3Sc3ccc(C(F)(F)F)cc32)CC1 [Fluphenazine decanoate, 2-{4-[3-(2-trifluoromethyl-phenothiazin-10-yl)propyl]piperazin-1-yl}ethyl decanoate]	3.6	1.6	–	–
CCN(CC)CC(=O)Nc1c(C)cccc1C [Lidocaine, 2-diethylamino-2′,6′-acetoxylidide]	1.5	1.4	–	–
CN1C(=O)CN=C(c2ccccc2)c2cc(Cl)ccc21 [diazepam]	–	–	37	0
